Measured values reported in US10907212B2, “Inhibitors of cell adhesion” (Regents of the University of Minnesota, priority 2016, dated 2021).
“Also recorded” adds a separate entry of the source. Where no end group is shown, it is not given here.

Legend:
[1] = tested on: NIH:OVCAR5 control shRNA and NIH:OVCAR5-VB3 cells; assay: Spheroid formation of cells pretreated with mitomycin C; type: cell-based, human; settings: data not shown
Experimental: (§1) Spheroids were formed from the NIH:OVCAR5 cell lines described above using the liquid overlay method. One milliliter of a single cell suspension was seeded at a concentration of 50,000 cells/ml in OptiMEM® media, into 24-well tissue culture plates coated with 0.5% Seakem agarose (in complete RPMI-1640). Plates were incubated at 37° C. in a humidified incubator with 5% CO2. At various time points up to 5 days, the plates were removed from the incubator and the spheroids were photographed with a Nikon CoolPix digital camera mounted on an Olympus CK2 inverted microscope with a 4× objective. The size of the spheroids was determined using the measure tool in Adobe Photoshop. The largest spheroids were quantified (20-90 spheroids/well), in a minimum of 8 wells, for a total of >300 spheroids per cell type.
Ovarian cancer is unique in that tumor cells commonly grow within the peritoneal cavity as free floating multi-cellular aggregates (spheroids) in the ascites fluid. […] Spheroids formed by both cell types appeared tightly aggregated, in contrast to previous results with the cell adhesion molecule claudin-4, where cells depleted of claudin-4 formed spheroids more slowly and the spheroids formed had increased paracellular permeability. […]

[2] = tested on: nectin 4 protein on NIH:OVCAR-5 cells; assay: Effect of peptides on anti-Nectin-4 antibody binding to cells as determined by flow cytometry; type: cell-based, human; settings: for IgG MFI: IgG control primary antibody; for nectin-4 antibody binding compared to untreated control cells (in words): flow cytometry; for Flow binding: summary table, Nectin-4 antibody binding relative to control = 100
Experimental: Confluent monolayers of cells were detached from 75 cm^2 tissue culture flasks using Accutase cell dissociation buffer (Innovative Cell Technologies, San Diego, Calif.), washed, and labeled with mouse IgG or mAbs against Nectin-4 or Nectin-1 (2.5 μg/10^6 cells) in Flow Buffer [phosphate buffered saline (PBS) containing 2.5% newborn calf serum and 0.02% sodium azide] for 30 min at 4° C.. Cells were washed and incubated with goat anti-mouse IgG F(ab′)2 (Jackson ImmunoResearch, West Grove, Pa.), then washed again and incubated with streptavidin-allophycocyanin conjugate (Jackson ImmunoResearch, West Grove, Pa.) for 30 min each. Cells were washed and fixed in Flow Buffer containing 1% formaldehyde and analyzed in the University of Minnesota Flow Cytometry Resource with a BD Accuri™ C6 flow cytometer (BD Biosciences, San Jose, Calif.) using the Accuri™ software.
Briefly, NIH:OVCAR-5 cells that natively express a moderate amount of nectin 4 protein were incubated for 30 minutes in 150 μg/mL of soluble peptide in DMSO. After incubation, the cells were washed, and then triple antibody stained using mouse anti-nectin 4 (or IgG control) primary antibody, biotinylated goat anti-mouse secondary antibody, and streptavidin APC tertiary antibody. Finally, utilizing the University of Minnesota flow core's Accuri C6 flow cytometer, the relative antibody binding affinity for control and peptide-treated samples was quantitated and compared. Data was collected for each of the 57 peptides generated.

[3] = tested on: adhesion of NIH:OVCAR5-N4-over cells to recombinant human Nectin-1 extracellular domain; assay: Inhibition of NIH:OVCAR5-N4-over cell adhesion to recombinant Nectin-1 by synthetic nectin peptides; type: cell-based; settings: 150 μg/ml peptide; 0.5 μg/well Nectin-1; 30 min adhesion; listed as N1-P20
Experimental: Black, clear-bottom 96-well microtiter plates (Corning, Imported Costar, Corning, N.Y.) were coated with recombinant human Nectin-1 extracellular domain (R&D Systems), recombinant human Nectin-4 extracellular domain (R&D Systems), mouse laminin (Invitrogen™), or bovine serum albumin (BSA; Probumin Diagnostic Grade, MilliPore) diluted in PBS. Covered plates were incubated overnight at 37° C. in a humidified incubator. After washing with PBS plus Ca^2+/Mg^2+ containing 2 mg/ml ovalbumin (Sigma-Aldrich), the plates were blocked for 1 hat 37° C. with 1% BSA in PBS without Ca^2+/Mg^2+. Confluent monolayers of NIH:OVCAR5 cells or NIH:OVCAR5-N4-over cells were detached with Accutase, and then filtered through a 40 μm cell strainer (BD Biosciences, San Jose, Calif.) to remove cell aggregates. The single cells were stained with CellTracker Green CMFDA (5-chloromethylfluorescein diacetate; Invitrogen™) according to the manufacturer's protocol. […] Plates were vigorously washed four times and read in a BioTek Synergy fluorescent microplate reader (BioTek, Winooski, V A). […]
Microtiter plates coated with recombinant Nectin-1 as described above were pre-incubated for 30 min at room temperature with 150 μg/ml Nectin-4 peptides in PBS in triplicate. CMFDA-stained NIH:OVCAR5-N4-over cells were then added to the wells and cell adhesion was quantified as described above. […]

[4] = tested on: ovarian cancer cell aggregation and spheroid formation; assay: Spheroid assay for peptides (visual scale +1 to +5); type: cell-based, human; settings: for Spheroid-24: 24 hrs, Control = 2; for Spheroid-24 / Spheroid-48: visual scale of +1 to +5; for Spheroid-48: 48 hrs, Control = 4; for spheroid size relative to the control (in words): at 24 hrs
Experimental: as §1
The clinical relevance is that by blocking the formation of spheroids, the cells will be more sensitive to chemotherapy (which targets the single cells that proliferate more rapidly than spheroids).
The spheroid assay for peptides 1-30 were scored using a visual scale of +1 to +5. The controls were scored at +2 (24 hrs) and +4 (48 hrs). […] It may be harder to visually assess the size at 24 hours, since the spheroids are relatively small, but and perhaps some of the peptides are affecting cell division, and that is why the spheroids are smaller than the controls at 48 hours, but not 24 hrs (this can be easily assayed with an MTT assay).

[5] = Run Four, Control 4 = 9.387504873
[6] = Run Four, antibody binding relative to Control 4 = 100
[7] = Run One, 150 μg/mL peptide, 30 minutes, Control 1 = 15,015
[8] = Run One, 150 μg/mL peptide, 30 minutes, Control 1 = 1,670
[9] = Run One, antibody binding relative to Control 1 = 100.00
[10] = Run Four, 150 μg/mL peptide, 30 minutes, Control 4 = 9,631.58

Compound | N4 MFI/IgG MFI [2, 5] | IgG MFI ([2]; Run Four, Control 4 = 1,026) | nectin-4 antibody binding, percent of control [2, 6] | nectin-4 antibody binding compared to untreated control cells (in words) ([2]; 150 μg/mL peptide) | N4 MFI [2, 7] | IgG MFI [2, 8] | N4 MFI/IgG MFI ([2]; Run One, Control 1 = 8.99) | nectin-4 antibody binding, percent of control [2, 9] | Flow binding [2] [%] | Spheroid-24 [4] | Spheroid-48 [4] | N4 MFI [2, 10] | also measured
CO[C@@]12[C@H](COC(N)=O)C3=C(C(=O)C(C)=C(N)C3=O)N1C[C@@H]1N[C@@H]12 [mitomycin C] |  |  |  |  |  |  |  |  |  |  |  |  | aggregation of cells in presence of mitomycin C ([1]; NIH:OVCAR5-VB3 cells with Nectin-4 knocked down by shRNA): No difference was observed; spheroid size versus untreated control cells ([1]; shRNA control NIH:OVCAR5 cells, after 24 h): smaller than the untreated control cells
NWYLQRMDVKLTCK-NH2 (listed as Homo sapiens) [Peptide 49] | 10.36 | 29486 | 3206 | erroneous/outlier |  |  |  |  |  |  |  |  | effect on cell adhesion to Nectin-1 (in words) [3]: to a greater extent than the mAb against Nectin-1; also recorded: complete inhibition
AWARVDAGEGAQEL-NH2 (listed as Homo sapiens) [Peptide 4] |  |  |  | reduction in nectin-4 antibody binding | 8,687 | 2,199 | 3.95 | 48.62 | 49 | 1 | 2 |  | 
PPPRNPLDGSVLLR-NH2 (listed as Homo sapiens) [Peptide 7] |  |  |  | increased the binding of the Nectin-4 antibody to cells | 18,342 | 1,255 | 14.62 | 128.04 | 128 | 3 |  |  | spheroid size relative to the control (in words) [4]: slightly larger spheroid size
LVPSREAHQQSLAC-NH2 (listed as Homo sapiens) [Peptide 45] | 9.646 | 1023 | 102.8 |  |  |  |  |  |  | 3 |  | 9,868.29 | 
PEVTIEGFDGNW-NH2 (listed as Homo sapiens) [Peptide 48] | 9.911 | 1069 | 110.7 |  |  |  |  |  |  | 1 | 2 | 10,595.37 | 
ELALLHSKYGLHVS-NH2 (listed as Homo sapiens) [Peptide 5] |  |  |  |  | 11,668 | 1,711 | 6.82 | 74.61 |  |  | 3 |  | 
EAQNRTLFFKGPINY-NH2 (listed as Homo sapiens) [Peptide 52] |  |  |  | increased nectin-4 antibody |  |  |  |  | 138 | 1 | 2 |  | N4 MFI ([2]; Run Five, 150 μg/mL peptide, 30 minutes, Control 5 = 17,768.90): 20,692.13; N4 MFI/IgG MFI ([2]; Run Five, Control 5 = 2.142155332): 2.717; IgG MFI ([2]; Run Five, Control 5 = 8,294.87): 7,617.02; nectin-4 antibody binding, percent of control ([2]; Run Five, antibody binding relative to Control 5 = 100): 138
ESLTLNVQYEPE-NH2 (listed as Homo sapiens) [Peptide 47] | 6.679 | 1789 | 118.1 |  |  |  |  |  |  | 1 | 2 | 11,949.18 | 
LRNAVQADEGEYEC-NH2 (listed as Homo sapiens) [Peptide 8] |  |  |  | increased the binding of the Nectin-4 antibody to cells | 20,015 | 1,670 | 11.99 | 137.47 | 137 | 3 |  |  | spheroid size relative to the control (in words) [4]: slightly larger spheroid size
